Experimental data published in PubChem BioAssay (NCI).
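Exposure lasted 48 hours, with cells grown in 96-well plates and compounds tested at five concentrations. The concentration for 50% growth inhibition is given as GI50. At the TGI there is no net growth.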

What was measured:
Assay in all cases: DTP human tumour cell line panel, 48 h
HCT-15 colon = tested on: HCT-15 colon
HT29 colon = tested on: HT29 colon
RPMI-8226 leukemia = tested on: RPMI-8226 leukemia
M14 melanoma = tested on: M14 melanoma
NCI-H226 lung = tested on: NCI-H226 lung
ACHN renal = tested on: ACHN renal
RXF 393 renal = tested on: RXF 393 renal
HOP-92 NSCLC = tested on: HOP-92 NSCLC
T-47D breast = tested on: T-47D breast
EKVX NSCLC = tested on: EKVX NSCLC
A498 renal = tested on: A498 renal
HCC-2998 colon = tested on: HCC-2998 colon
SK-MEL-2 melanoma = tested on: SK-MEL-2 melanoma
COLO 205 colon = tested on: COLO 205 colon
NCI-H23 lung = tested on: NCI-H23 lung
U251 CNS = tested on: U251 CNS
NCI-H522 lung = tested on: NCI-H522 lung
UO-31 renal = tested on: UO-31 renal
HS 578T breast = tested on: HS 578T breast
NCI/ADR-RES ovarian = tested on: NCI/ADR-RES ovarian
OVCAR-4 ovarian = tested on: OVCAR-4 ovarian
UACC-62 melanoma = tested on: UACC-62 melanoma
MOLT-4 leukemia = tested on: MOLT-4 leukemia
SF-268 CNS = tested on: SF-268 CNS
OVCAR-3 ovarian = tested on: OVCAR-3 ovarian
UACC-257 melanoma = tested on: UACC-257 melanoma
OVCAR-8 ovarian = tested on: OVCAR-8 ovarian
KM12 colon = tested on: KM12 colon
MCF7 breast = tested on: MCF7 breast
MDA-MB-231 breast = tested on: MDA-MB-231 breast
SN12C renal = tested on: SN12C renal
SK-MEL-5 melanoma = tested on: SK-MEL-5 melanoma
HL-60(TB) leukemia = tested on: HL-60(TB) leukemia
SK-OV-3 ovarian = tested on: SK-OV-3 ovarian
OVCAR-5 ovarian = tested on: OVCAR-5 ovarian
SF-539 CNS = tested on: SF-539 CNS
PC-3 prostate = tested on: PC-3 prostate
IGROV1 ovarian = tested on: IGROV1 ovarian
LOX IMVI melanoma = tested on: LOX IMVI melanoma
NCI-H460 lung = tested on: NCI-H460 lung
SF-295 CNS = tested on: SF-295 CNS
MALME-3M melanoma = tested on: MALME-3M melanoma
CCRF-CEM leukemia = tested on: CCRF-CEM leukemia
SW-620 colon = tested on: SW-620 colon
SK-MEL-28 melanoma = tested on: SK-MEL-28 melanoma
MDA-MB-435 = tested on: MDA-MB-435
TK-10 renal = tested on: TK-10 renal
BT-549 breast = tested on: BT-549 breast
DU-145 prostate = tested on: DU-145 prostate
A549 NSCLC = tested on: A549 NSCLC
CAKI-1 renal = tested on: CAKI-1 renal
SR leukemia = tested on: SR leukemia
SNB-19 CNS = tested on: SNB-19 CNS
HOP-62 NSCLC = tested on: HOP-62 NSCLC
K-562 leukemia = tested on: K-562 leukemia
HCT-116 colon = tested on: HCT-116 colon
SNB-75 CNS = tested on: SNB-75 CNS
786-0 renal = tested on: 786-0 renal

SMILES: Cc1ccc(NC(=O)c2cccc(C(C)(C)C#N)c2)cc1Nc1ccc2ncn(C)c(=O)c2c1
- GI50 (HCT-15 colon): 3.11 µM
- TGI (HCT-15 colon): > 100 µM
- GI50 (HT29 colon): 0.032 µM
- TGI (HT29 colon): > 100 µM
- GI50 (RPMI-8226 leukemia): 3.25 µM
- TGI (RPMI-8226 leukemia): > 100 µM
- GI50 (M14 melanoma): 0.019 µM
- GI50 (NCI-H226 lung): 5.62 µM
- TGI (NCI-H226 lung): > 100 µM
- GI50 (ACHN renal): 1.73 µM
- TGI (ACHN renal): > 100 µM
- GI50 (RXF 393 renal): 6.87 µM
- TGI (RXF 393 renal): > 73.4 µM
- GI50 (HOP-92 NSCLC): 0.287 µM
- TGI (HOP-92 NSCLC): 4.98 µM
- GI50 (T-47D breast): 3.66 µM
- TGI (T-47D breast): > 100 µM
- GI50 (EKVX NSCLC): 3.74 µM
- TGI (EKVX NSCLC): > 100 µM
- GI50 (A498 renal): 0.742 µM
- TGI (A498 renal): 4.08 µM
- GI50 (HCC-2998 colon): 0.0676 µM
- TGI (HCC-2998 colon): > 100 µM
- GI50 (SK-MEL-2 melanoma): 0.0692 µM
- TGI (SK-MEL-2 melanoma): 8.69 µM
- GI50 (COLO 205 colon): 0.0257 µM
- TGI (COLO 205 colon): 92.2 µM
- GI50 (NCI-H23 lung): 0.304 µM
- TGI (NCI-H23 lung): > 100 µM
- GI50 (U251 CNS): 7.19 µM
- TGI (U251 CNS): > 100 µM
- GI50 (NCI-H522 lung): 3.88 µM
- TGI (NCI-H522 lung): > 100 µM
- GI50 (UO-31 renal): 0.475 µM
- TGI (UO-31 renal): > 100 µM
- GI50 (HS 578T breast): 8.65 µM
- TGI (HS 578T breast): > 100 µM
- GI50 (NCI/ADR-RES ovarian): 4.12 µM
- TGI (NCI/ADR-RES ovarian): > 100 µM
- GI50 (OVCAR-4 ovarian): 3.9 µM
- TGI (OVCAR-4 ovarian): > 100 µM
- GI50 (UACC-62 melanoma): 0.0275 µM
- GI50 (MOLT-4 leukemia): 5.2 µM
- TGI (MOLT-4 leukemia): > 100 µM
- GI50 (SF-268 CNS): 6.01 µM
- TGI (SF-268 CNS): > 100 µM
- GI50 (OVCAR-3 ovarian): 13.4 µM
- TGI (OVCAR-3 ovarian): > 100 µM
- GI50 (UACC-257 melanoma): 0.0405 µM
- TGI (UACC-257 melanoma): > 100 µM
- GI50 (OVCAR-8 ovarian): 4.96 µM
- TGI (OVCAR-8 ovarian): > 100 µM
- GI50 (KM12 colon): 1.66 µM
- TGI (KM12 colon): > 100 µM
- GI50 (MCF7 breast): 4.4 µM
- TGI (MCF7 breast): > 100 µM
- GI50 (MDA-MB-231 breast): < 0.0239 µM
- TGI (MDA-MB-231 breast): > 29 µM
- GI50 (SN12C renal): 4.94 µM
- TGI (SN12C renal): > 100 µM
- GI50 (SK-MEL-5 melanoma): 1.26 µM
- TGI (SK-MEL-5 melanoma): 20 µM
- GI50 (HL-60(TB) leukemia): 0.0547 µM
- TGI (HL-60(TB) leukemia): 13.9 µM
- GI50 (SK-OV-3 ovarian): > 100 µM
- TGI (SK-OV-3 ovarian): > 100 µM
- GI50 (OVCAR-5 ovarian): 0.123 µM
- TGI (OVCAR-5 ovarian): > 100 µM
- GI50 (SF-539 CNS): 3.32 µM
- TGI (SF-539 CNS): > 100 µM
- GI50 (PC-3 prostate): 25.9 µM
- TGI (PC-3 prostate): > 100 µM
- GI50 (IGROV1 ovarian): 1.49 µM
- TGI (IGROV1 ovarian): > 100 µM
- GI50 (LOX IMVI melanoma): 0.0585 µM
- TGI (LOX IMVI melanoma): > 67.5 µM
- GI50 (NCI-H460 lung): 2.76 µM
- TGI (NCI-H460 lung): > 100 µM
- GI50 (SF-295 CNS): 6.99 µM
- TGI (SF-295 CNS): > 100 µM
- TGI (MALME-3M melanoma): 0.0434 µM
- GI50 (CCRF-CEM leukemia): 5.36 µM
- TGI (CCRF-CEM leukemia): > 100 µM
- GI50 (SW-620 colon): 1.01 µM
- TGI (SW-620 colon): > 100 µM
- GI50 (SK-MEL-28 melanoma): 0.0192 µM
- GI50 (MDA-MB-435): 0.0625 µM
- TGI (MDA-MB-435): > 100 µM
- GI50 (TK-10 renal): 2.9 µM
- TGI (TK-10 renal): > 100 µM
- GI50 (BT-549 breast): 5.17 µM
- TGI (BT-549 breast): > 100 µM
- GI50 (DU-145 prostate): 5.66 µM
- TGI (DU-145 prostate): > 100 µM
- GI50 (A549 NSCLC): 8.16 µM
- TGI (A549 NSCLC): > 100 µM
- GI50 (CAKI-1 renal): 2.96 µM
- TGI (CAKI-1 renal): > 100 µM
- GI50 (SR leukemia): 4.79 µM
- TGI (SR leukemia): > 100 µM
- GI50 (SNB-19 CNS): 5.48 µM
- TGI (SNB-19 CNS): > 100 µM
- GI50 (HOP-62 NSCLC): 1.11 µM
- TGI (HOP-62 NSCLC): > 100 µM
- GI50 (K-562 leukemia): 0.484 µM
- TGI (K-562 leukemia): > 79.3 µM
- GI50 (HCT-116 colon): 0.1 µM
- TGI (HCT-116 colon): > 100 µM
- GI50 (SNB-75 CNS): 12.7 µM
- TGI (SNB-75 CNS): > 100 µM
- GI50 (786-0 renal): 11.6 µM
- TGI (786-0 renal): > 100 µM
